In assay [1] the test system is Poly(GP), Poly(GA), TDP-43 inclusions. The assay can be described thus: Immunohistochemistry of sagittal brain sections of +/+PWR500 mice. The format is in vivo, mouse. The conditions noted are these: cortex. The method, then:
Therapeutic Efficacy in a c9ALS/FD mouse model. All animal studies were completed as approved by the Scripps Florida Institutional Animal Care and Use Committee. A total of 24 mice (12+/+PWR500 [7 Male and 5 Female] and 12 WT [6 Male and 6 Female]) mice, age- and gender-matched and ranging in age from 18-22 weeks old were used in therapeutic efficacy studies (Table 6). Mice were anesthetized by intraperitoneal (i.p.) injection of 10 mg/mL Ketamine:1 mg/mL Xylazine solution. Intracerebroventricular (ICV) stereotactic injections of 10 μL of 7 (33 nmol) were administered into the right ventricle using the following coordinates: 0.2 mm posterior and 1.0 mm lateral to the right from the bregma and 3 mm deep. Mice were treated with 7 or vehicle consisting of 1% DMSO in Saline. Three weeks post-treatment, mice were euthanized, and tissue was harvested for study.
Immunohistochemistry. Tissue was excised postmortem, and brain tissue was sliced at the midline. The right hemisphere was stored in 10% neutral buffered formalin for 48 h. Tissue processing, embedding and sectioning were carried out by the Scripps Florida's Histology Core. Formalin-fixed tissue was placed on a paraffin processor (Sakura Tissue-Tek VIPS), embedded in paraffin, sectioned a 4 μm, and mounted on plus slides. The slides were optimized with the appropriate primary antibody dilutions (see below) on the Leica BOND-MAX platform followed by the Leica Refine Detection Kit containing the secondary polymer, DAB chromagen and counterstain. After dehydration in graded alcohols and cleared in xylene, the slides were cover slipped with a permanent mounting medium, Cytoseal 60 (Thermo Scientific). Images were taken in the right hemisphere of the cortex due north of the hippocampus with 5 images were taken per slice. Average number of aggregates or inclusions per cell was assessed for each sample and reported. Statistical analysis was measured using an unpaired t-test with Welch's correction. Immunohistochemical staining and analyses were completed blinded.

Assay [2] relates to r(G4C2)8. The assay can be described thus: Biolayer interferometry (BLI) binding. As for the experimental part:
Biolayer Interferometry (BLI). BLI studies were performed similarly as previously described (12) using an Octet RED96. Briefly, 5′-biotinylated nucleic acids were folded by heating at 95° C. for 4 min in 10 mM sodium phosphate buffer, pH 7, followed by slowly cooling to room temperature. Then, to the folded RNA were added the following components: 1.386 mL 1×DPBS (21-031-CV, Corning), 180 μL freshly prepared 1% (w/v) BSA, 36 μL 1% (v/v) Tween-20, and 18 μL DMSO (1% final concentration) in a final volume of 1.8 mL. The final concentration of RNA was 0.5 μM. Separately, serial dilutions of the compound of interest were prepared in the same buffer.
The resulting curves were analyzed and processed using Octet Data Analysis software version 9.1 by subtracting the response of the sensors recorded upon incubation with solutions containing compound and no RNA (parallel reference). The data were then fitted assuming reversible binding using the entire time interval for association and dissociation using either 1:1 or the 2:1 heterogeneous binding curve fitting model. The reported Kd,n, kon,n and koff,n values represent the average of two independent experiments.

Assay [3] relates to RAN translation of r(G4C2)66. The assay can be described thus: RAN translation assay in HEK293T cells. It counts as cell-based, human. As for the experimental part:
RAN Translation Assay. Inhibition of RAN translation in HEK239T cells was completed as previously described (12). Briefly, HEK293T cells (6×10^6 cells) were seeded in growth medium and incubated at 37° C. overnight. Cells were co-transfected with 2 μg of a plasmid encoding r(G4C2)66-No ATG-NanoLuciferase and 1 μg SV40-Firefly luciferase plasmid with Lipofectamine 3000 (Life Technologies) per the manufacturer's protocols. Following transfection, the cells (˜8000/well) were plated in a clear bottom 384-well plate and incubated at 37° C. for 2 h. Compounds were added in growth medium such that the final concentration of DMSO was less than 1%. The G4C2-LNA and control-LNA (Table 3) were transfected with RNAiMax at a final concentration of 100 nM following transfection with RNAiMax (Life Technologies) per the manufacturer's recommended protocol. RAN and canonical translation was measured following 24 h treatment using a Dual-Luciferase® Reporter Assay System (Promega) following manufacturer's protocol. Experiments were performed as biological triplicates (n=3). Luminescence from Nano-Luciferase activity (RAN translation) was normalized to luminescence from firefly luciferase activity. This ratio for vehicle-treated samples was then set to 1 and the ratios for treated samples normalized accordingly.

Assay [4] concerns r(G4C2)8. The assay can be described thus: In vitro Chem-CLIP and C-Chem-CLIP. It counts as binding. The conditions noted are these: constant 4 (500 nM), increasing concentrations of competitor. As for the experimental part: In vitro Chemical Cross-linking and Isolation by Pull-Down (Chem-CLIP) and Competitive Chemical Cross-linking and Isolation by Pull-Down (C-Chem-CLIP): Approximately 10,000 counts of ^32P 5′-end labeled r(G4C2)8 was folded in 1×Folding Buffer at 95° C. for 1 min. After cooling to room temperature, the Chem-CLIP probe at the desired concentrations (5, 10, 100, 500, 1000, 5000, 10000 nM) was added, and the samples were incubated at 37° C. for 18 h. For C-Chem-CLIP studies, the parent compound (10, 100, 500, 1000, 5000, 10000 nM) was incubated with RNA for 1 h before addition of the Chem-CLIP probe (500 nM).
Cross-linked RNAs were clicked to biotin […] azide (10 μL of a 5 mM stock solution in DMSO) by incubating in a solution containing 25 mM HEPES (pH 7.1), 250 mM sodium ascorbate, 10 mM CuSO4, and 50 mM THPTA (tris-hydroxypropyltriazolylmethylamine) for 6 h at 37° C. A 300 μL of streptavidin-agarose beads (Sigma-Aldrich) was washed three times and then resuspended in 1×PBS. An aliquot (20 μL) of the slurry was added to each sample, which was incubated for 1 h at room temperature. The samples were centrifuged and the supernatant containing unbound RNA was transferred to an unused tube. The beads were then washed three times with 1×PBS supplemented with 0.10% (v/v) Tween-20 and centrifuged, with each wash supernatant being added to the tube containing unbound RNA. The amounts of radioactivity in the supernatant and associated with the beads were quantified with a Beckman Coulter LS6500 Liquid Scintillation Counter.

Where two headings read alike, the source gives them in different places.

On to `CCOC(=O)C1=C(Nc2ccccc2)S/C(=C\c2ccc(OCCOCCOCCOCCNC(=O)CCC(=O)N(CCOCCOCCOc3ccc4[nH]c5c(C)c6ccncc6c(C)c5c4c3)CCOCCOCCOc3ccc4[nH]c5c(C)c6ccncc6c(C)c5c4c3)c(O)c2)C1=O` [Compound 7], for which, in assay [1] (compared to vehicle), the “Poly(GA) aggregates” value is “significant decrease” and the “Poly(GP) aggregates” value is “significant decrease”. The TDP-43 inclusions result in assay [1] (relative to vehicle) was “decreased”.

With `Cc1c2ccncc2c(C)c2c1[nH]c1ccc(OCCOCCOCCNCCOCCOCCOc3ccc4[nH]c5c(C)c6ccncc6c(C)c5c4c3)cc12` [Compound 3], the “dissociation rate (koff) compared to 2” value in the assay on r(G4C2)8 [2] (BLI) was “slower dissociation rate”. For the same compound, the equilibrium dissociation constant (Kd) came to 4 ± 0.07 nM on r(G4C2)8 [2] (BLI, read-out: Kd) and 900 nM on r(G4C2)8 [2] (BLI, read-out: Kd, 2). The “bound more avidly to r(G4C2)8 than 2” value with r(G4C2)8 [2] (Kd relative to 2) is around 13 fold. For the same compound, the “RAN translation of r(G4C2)66 (Nano-luciferase activity)” value in assay [3] was “inhibited”. In addition, the “C-Chem-CLIP, RNA pulled down by 4” value in the assay on r(G4C2)8 [4] is given as “reduced the percentage of RNA pulled down in a dose dependent fashion”.

The values are drawn from patent publication US20230381170A1, “METHOD FOR TREATING ALS/FTD THROUGH DEGRADATION OF RNA REPEAT EXPANSION” (University of Florida Research Foundation, Incorporated, priority 2020, published 2023).
